Some results are limits rather than exact numbers.

Chain of His-Tagged hOGA (human O-GlcNAcase) (O60502 whole entry): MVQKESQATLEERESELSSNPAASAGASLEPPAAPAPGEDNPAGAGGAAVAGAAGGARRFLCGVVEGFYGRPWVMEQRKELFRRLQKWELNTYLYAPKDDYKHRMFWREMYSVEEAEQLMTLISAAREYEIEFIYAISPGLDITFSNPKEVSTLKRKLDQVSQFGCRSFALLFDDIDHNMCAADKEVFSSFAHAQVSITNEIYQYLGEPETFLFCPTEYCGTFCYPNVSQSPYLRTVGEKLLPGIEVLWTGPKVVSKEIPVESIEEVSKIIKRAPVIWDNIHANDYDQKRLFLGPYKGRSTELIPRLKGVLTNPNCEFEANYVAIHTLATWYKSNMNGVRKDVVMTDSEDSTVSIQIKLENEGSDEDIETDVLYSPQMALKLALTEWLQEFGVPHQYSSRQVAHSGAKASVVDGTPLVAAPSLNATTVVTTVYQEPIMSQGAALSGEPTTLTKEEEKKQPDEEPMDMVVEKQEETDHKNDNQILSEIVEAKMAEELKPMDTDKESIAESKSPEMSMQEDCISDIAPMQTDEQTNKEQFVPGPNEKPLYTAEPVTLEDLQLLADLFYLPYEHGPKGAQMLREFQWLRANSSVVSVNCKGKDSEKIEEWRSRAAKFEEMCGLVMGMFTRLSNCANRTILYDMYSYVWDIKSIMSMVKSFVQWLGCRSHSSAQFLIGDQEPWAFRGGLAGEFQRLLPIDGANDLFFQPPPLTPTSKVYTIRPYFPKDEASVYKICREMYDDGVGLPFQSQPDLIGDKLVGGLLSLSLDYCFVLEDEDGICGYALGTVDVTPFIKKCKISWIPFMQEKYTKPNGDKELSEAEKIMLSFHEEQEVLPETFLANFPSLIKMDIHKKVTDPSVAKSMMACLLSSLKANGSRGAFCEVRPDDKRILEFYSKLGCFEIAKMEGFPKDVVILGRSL

The first assay addresses His-Tagged hOGA (human O-GlcNAcase) (Homo sapiens (Human), UniProt O60502). The assay is described as follows: Human O-GlcNAcase enzyme inhibition assay (Example B01). Type of assay: biochemical. The conditions noted are these: OGA IC50 (M), OGA enzyme inhibition assay; activity range classes defined in μM.
A word on the IC50: it is the concentration that inhibits the measured activity by half. Molecule `Cc1csc(N2CCN(C(C)c3ccc4c(c3)OCO4)CC2)n1` (racemic) [Example 144, 1-[1-(1,3-benzodioxol-5-yl)ethyl]-4-(4-methyl-2-thiazolyl)-piperazine] came in with an IC50 of 2e-07 to 1e-06 M.
For `CC(=O)Nc1cnc(N2CCN(C(C)c3ccc4cccnc4c3)CC2)nc1` (racemic) [Example 120, N-(2-(4-(1-(quinolin-7-yl)ethyl)piperazin-1-yl)pyrimidin-5-yl)acetamide], the IC50 is 5e-08 to 2e-07 M.

Still in this assay, the particulars now being: OGA enzyme inhibition assay; activity range classes defined in μM; read-out: OGA IC50.
Turning to `C[C@@H](c1ccc2c(c1)OCO2)N1CCN(c2nc3c(s2)CNCC3)CC1` [Example 182, (S)-2-(4-(1-(benzo[d][1,3]dioxol-5-yl)ethyl)piperazin-1-yl)-4,5,6,7-tetrahydrothiazolo[5,4-c]pyridine], the IC50 was below 5e-08 M.
Still for that read-out and setting: the same measure for `C[C@@H](c1ccc2c(c1)OCO2)N1CCN(c2ncc(C3(O)CCOCC3)cn2)CC1` [Example 188, (S)-4-(2-(4-(1-(benzo[d][1,3]dioxol-5-yl)ethyl)piperazin-1-yl)pyrimidin-5-yl)tetrahydro-2H-pyran-4-ol]: below 5e-08 M; for `CC(c1ccc2nccnc2c1)N1CCN(c2ccc(C(F)(F)F)cn2)CC1` (racemic) [Example 165, 6-(1-(4-(5-(trifluoromethyl)pyridin-2-yl)piperazin-1-yl)ethyl)quinoxaline]: 2e-07 to 1e-06 M; for `C[C@@H](c1ccc2c(c1)OCO2)N1CCN(c2nc3ccccc3[nH]2)CC1` [Example 138, (S)-2-(4-(1-(benzo[d][1,3]dioxol-5-yl)ethyl)piperazin-1-yl)-1H-benzo[d]imidazole]: 1e-06 to 1e-05 M.
Consider `CNC(=O)c1csc(N2CCN(C(C)c3ccc4c(c3)OCCO4)CC2)n1` (racemic) [Example 50, 2-(4-(1-(2,3-dihydrobenzo[b][1,4]dioxin-6-yl)ethyl)piperazin-1-yl)-N-methylthiazole-4-carboxamide], for which the concentration for half-maximal inhibition (IC50) was 5e-08 to 2e-07 M.
On to `CC(=O)Nc1cnc(N2CCN(C(C)c3ccc4c(Cl)ccnc4c3)CC2)nc1` (racemic) [Example 101, N-(2-(4-(1-(4-chloroquinolin-7-yl)ethyl)piperazin-1-yl)pyrimidin-5-yl)acetamide], for which the IC50 lay within 2e-07 to 1e-06 M.
The same measure, in the same setting: the same measure for `COc1ccnc(N2CCN(C(C)c3ccc4c(c3)OCO4)CC2)n1` (racemic) [Example 39, 2-(4-(1-(Benzo[d][1,3]dioxol-5-yl)ethyl)piperazin-1-yl)-4-methoxypyrimidine]: 5e-08 to 2e-07 M; for `CC(=O)Nc1ccnc(N2CCN(C(C)c3ccc4c(c3)OCO4)CC2)n1` (racemic) [Example 23, N-(2-(4-(1-(Benzo[d][1,3]dioxol-5-yl)ethyl)piperazin-1-yl)pyrimidin-4-yl)acetamide]: 5e-08 to 2e-07 M.
“N-((2-(4-(1-(benzo[d][1,3]dioxol-5-yl)ethyl)piperazin-1-yl)thiazol-4-yl)methyl)acetamide [Example 85]”: the IC50 was below 5e-08 M.
On the same count and under the same terms, then `CC(c1ccc2c(c1)OCO2)N1CCN(c2ccnc(Cl)n2)CC1` (racemic) [Example 40, 4-(4-(1-(Benzo[d][1,3]dioxol-5-yl)ethyl)piperazin-1-yl)-2-chloropyrimidine], with 5e-08 to 2e-07 M; and `CC(c1ccc2c(c1)OCO2)N1CCN(c2ccc(N)cn2)CC1` (racemic) [Example 58, 6-(4-(1-(Benzo[d][1,3]dioxol-5-yl)ethyl)piperazin-1-yl)pyridin-3-amine], with 5e-08 to 2e-07 M.
On the same count and under the same terms, the same measure for `CC(c1ccc2c(c1)OCO2)N1CCN(c2ncc(C(=O)N(C)C)cn2)CC1` (racemic) [Example 99, 2-(4-(1-(benzo[d][1,3]dioxol-5-yl)ethyl)piperazin-1-yl)-N,N-dimethylpyrimidine-5-carboxamide]: below 5e-08 M; for `CC(=O)Nc1nnc(N2CCN(C(C)c3ccc4sc(C)nc4c3)CC2)s1` (racemic) [Example 170, N-(5-(4-(1-(2-methylbenzo[d]thiazol-5-yl)ethyl)piperazin-1-yl)-1,3,4-thiadiazol-2-yl)acetamide]: below 5e-08 M; for `C[C@@H](c1ccc2c(c1)OCO2)N1CCN(c2nc3c(s2)CN(S(C)(=O)=O)CC3)CC1` [Example 193, (S)-2-(4-(1-(benzo[d][1,3]dioxol-5-yl)ethyl)piperazin-1-yl)-5-(methylsulfonyl)-4,5,6,7-tetrahydrothiazolo[5,4-c]pyridine]: below 5e-08 M.
Consider `C[C@@H](c1ccc2c(c1)OCO2)N1CCN(c2ccc(Br)cn2)CC1` [Example 191, (S)-1-(1-(benzo[d][1,3]dioxol-5-yl)ethyl)-4-(5-bromopyridin-2-yl)piperazine], for which the IC50 was 5e-08 to 2e-07 M.
Take `CC(=O)Nc1cnc(N2CCN(C(C)c3ccc4nccnc4c3)CC2)nc1` (racemic) [Example 93, N-(2-(4-(1-(quinoxalin-6-yl)ethyl)piperazin-1-yl)pyrimidin-5-yl)acetamide]: the IC50 is below 5e-08 M.
On the same count and under the same terms, then `CC(c1ccc2c(c1)OCO2)N1CCN(c2nc(C(=O)O)cs2)CC1` (racemic) [Example 18, 2-(4-(1-(Benzo[d][1,3]dioxol-5-yl)ethyl)piperazin-1-yl)thiazole-4-carboxylic acid], with 5e-08 to 2e-07 M.
The same measure, in the same setting: the same measure for `CC(c1ccc2c(c1)OCO2)N1CCN(c2nc(C(=O)NC3CCCCC3)cs2)CC1` (racemic) [Example 33, 2-(4-(1-(Benzo[d][1,3]dioxol-5-yl)ethyl)piperazin-1-yl)-N-cyclohexylthiazole-4-carboxamide]: 2e-07 to 1e-06 M; for `CCCNc1nnc(N2CCN([C@@H](C)c3ccc4c(c3)OCO4)CC2)s1` [Example 142, (S)-5-(4-(1-(benzo[d][1,3]dioxol-5-yl)ethyl)piperazin-1-yl)-N-propyl-1,3,4-thiadiazol-2-amine]: 5e-08 to 2e-07 M; for `C[C@@H](c1ccc2c(c1)OCO2)N1CCN(c2ccc(CO)cn2)CC1` [Example 185, (S)-(6-(4-(1-(benzo[d][1,3]dioxol-5-yl)ethyl)piperazin-1-yl)pyridin-3-yl)methanol]: below 5e-08 M.
Still for that read-out and setting: the same measure for `CC(c1ccc2c(c1)OCO2)N1CCN(c2ncc(CO)s2)CC1` (racemic) [Example 28, (2-(4-(1-(Benzo[d][1,3]dioxol-5-yl)ethyl)piperazin-1-yl)thiazol-5-yl)methanol]: 5e-08 to 2e-07 M.
In the case of `Cc1cnc(N2CCN(C(C)c3ccc4c(c3)OCO4)CC2)s1` (racemic) [Example 36], the IC50 was 5e-08 to 2e-07 M.
Still for that read-out and setting: then `CCCC(=O)Nc1nnc(N2CCN(C(C)c3ccc4c(c3)OCO4)CC2)s1` (racemic) [Example 106, N-(5-(4-(1-(benzo[d][1,3]dioxol-5-yl)ethyl)piperazin-1-yl)-1,3,4-thiadiazol-2-yl)butyramide], with below 5e-08 M.
For the molecule `CC(c1ccc2nccnc2c1)N1CCN(c2nc3ccccc3s2)CC1` (racemic) [Example 135, 2-(4-(1-(quinoxalin-6-yl)ethyl)piperazin-1-yl)benzo[d]thiazole], the IC50 lay in the range of 1e-06 to 1e-05 M.
Still for that read-out and setting: the same measure for `CC(c1ccc2c(c1)OCO2)N1CCN(c2nc3ccccc3s2)CC1` (racemic) [Example 130, 2-(4-(1-(benzo[d][1,3]dioxol-5-yl)ethyl)piperazin-1-yl)benzo[d]thiazole]: 2e-07 to 1e-06 M; for `CCc1cnc(N2CCN(C(C)c3ccc4nccnc4c3)CC2)nc1` (racemic) [Example 103, 6-(1-(4-(5-ethylpyrimidin-2-yl)piperazin-1-yl)ethyl)quinoxaline]: 5e-08 to 2e-07 M.
Turning to `CC(c1ccc2c(c1)OCO2)N1CCN(c2nnc(N)s2)CC1` (racemic) [Example 41, 5-(4-(1-(benzo[d][1,3]dioxol-5-yl)ethyl)piperazin-1-yl)-1,3,4-thiadiazol-2-amine], the IC50 was in the range of 5e-08 to 2e-07 M.
The same measure, in the same setting: the same measure for `C[C@@H](c1ccc2c(c1)OCO2)N1CCN(c2ncc(Br)cn2)CC1` [Example 175, (S)-2-(4-(1-(benzo[d][1,3]dioxol-5-yl)ethyl)piperazin-1-yl)-5-bromopyrimidine]: below 5e-08 M; for `Cc1nnc(C2CCN(C(C)c3ccc4c(c3)OCO4)CC2)o1` (racemic) [Example 2, 2-(1-(1-(benzo[d][1,3]dioxol-5-yl)ethyl)piperidin-4-yl)-5-methyl-1,3,4-oxadiazole]: 2e-07 to 1e-06 M; for `CC(=O)Nc1nnc(N2CCN(C(C)c3ccc4nsnc4c3)CC2)s1` (racemic) [Example 123, N-(5-(4-(1-(benzo[c][1,2,5]thiadiazol-5-yl)ethyl)piperazin-1-yl)-1,3,4-thiadiazol-2-yl)acetamide]: below 5e-08 M.
On to `CC(c1ccc2c(c1)OCO2)N1CCN(c2ncc(N)cn2)CC1` (racemic) [Example 70, 2-(4-(1-(Benzo[d][1,3]dioxol-5-yl)ethyl)piperazin-1-yl)pyrimidin-5-amine], for which the IC50 fell in the range of 2e-07 to 1e-06 M.
Same read-out and setting: then `CC(c1ccc2c(c1)OCO2)N1CCN(c2ncc(CN3CCOCC3)s2)CC1` (racemic) [Example 79, 4-((2-(4-(1-(Benzo[d][1,3]dioxol-5-yl)ethyl)piperazin-1-yl)thiazol-5-yl)methyl)morpholine], with 5e-08 to 2e-07 M; and `C[C@@H](c1ccc2c(c1)OCO2)N1CCN(c2ncc(NC(=O)CCO)cn2)CC1` [Example 177, (S)-N-(2-(4-(1-(benzo[d][1,3]dioxol-5-yl)ethyl)piperazin-1-yl)pyrimidin-5-yl)-3-hydroxypropanamide], with below 5e-08 M; and `CCOC(=O)c1ccc(N2CCN([C@@H](C)c3ccc4c(c3)OCO4)CC2)nc1` [Example 183, Ethyl (S)-6-(4-(1-(benzo[d][1,3]dioxol-5-yl)ethyl)piperazin-1-yl)nicotinate], with 5e-08 to 2e-07 M.
On the same count and under the same terms, then `C[C@@H](c1ccc2c(c1)OCO2)N1CCN(c2ccc(C(F)(F)F)cn2)CC1` [Example 166, (S)-1-(1-(benzo[d][1,3]dioxol-5-yl)ethyl)-4-(5-(trifluoromethyl)pyridin-2-yl)piperazine], with 5e-08 to 2e-07 M.

The assay is the same for the next values; noted with them: measured according to Example B01.
As for `C[C@@H](c1ccc2c(c1)OCO2)N1CCN(c2nc3c(s2)CNCC3)CC1` [Example 182, (S)-2-(4-(1-(benzo[d][1,3]dioxol-5-yl)ethyl)piperazin-1-yl)-4,5,6,7-tetrahydrothiazolo[5,4-c]pyridine], the “OGA inhibitor activity (in words)” value is on record as “very potent OGA inhibitors”.
On the same count and under the same terms, the same measure for `CNC(=O)c1csc(N2CCN(C(C)c3ccc4c(c3)OCO4)CC2)n1` (single isomer, unassigned) [Example 56]: “very potent OGA inhibitors”.

The record behind these values is patent publication US10336775B2 (Asceneuron SA, priority 2014, dated 2019).
